Assay results reported in US11413243B2, “Fusogenic compounds for delivery of biologically active molecules” (Nitto Denko Corporation, priority 2017, dated 2022).
Like-named read-outs stand apart in the source and are kept apart here.

System: HSP47
Conditions: for HSP47 gene expression knockdown compared to control formulation without fusogenic compound: HEDC and S104 liposomes, all concentrations of siRNA
[1] = Table 3, siRNA 18 nM, rat stellate cells
[2] = Table 3, siRNA 75 nM, rat stellate cells
[3] = Table 3, siRNA 300 nM, rat stellate cells
[4] = Table 4, siRNA 18 nM, rat stellate cells
[5] = Table 4, siRNA 75 nM, rat stellate cells
[6] = Table 4, siRNA 300 nM, rat stellate cells

Method: The in vitro activity for gene expression knockdown using an siRNA was measured using rat stellate cells in DMEM medium according to the following protocol: One day before the transfection, plate the cells in a 96-well plate at 3×10^3 cells per well for Stellate cells with 100 μl of medium containing 10% FBS and culture in a 37° C. incubator containing a humidified atmosphere of 5% CO2 in air. Before transfection, change medium to 90 μl of medium without antibiotics. Prepare the appropriate dilutions of the solution collected from the tubing in PBS buffer so that the addition of 10 μl into each well is sufficient to reach the desired concentration. 48 hours after transfection, wash the cells once with ice-cold PBS. Lyse the cells with 50 μl of Cell-to-Ct Lysis Buffer for 5-30 minutes at ambient temperature. Add 5 μl of Stop Solution and incubate for 2 minutes at ambient temperature. Measure mRNA level by qPCR with TAQMAN immediately. Alternatively, the samples can be frozen at −80° C. and assayed at later times. For qRT-PCR assay: Thaw all reagents on ice. Mix the pooled reagents in 0.2 ml PCR tubes. Dispense the set-up mixture into 384 well plate, 10 μl/well×3. Seal the plate with film, spin down mixture into the bottom of wells. Perform qRT-PCR assay.
In this example, an HSP47 siRNA was used to knockdown HSP47 gene. For TaqMan gene expression assays, HSP47 gene specific TaqMan probe was used.

Structure (SMILES) | % of Expression at Dose (nM) 18 nM [1] | % of Expression at Dose (nM) 75 nM [2] | % of Expression at Dose (nM) 300 nM [3] | % of Expression at Dose (nM) 18 nM [4] | % of Expression at Dose (nM) 75 nM [5] | % of Expression at Dose (nM) 300 nM [6] | also measured
CCCCC/C=C\C/C=C\CCCCCCCC(=O)OCCN(CCOC(=O)CCCCCCC/C=C\C/C=C\CCCCC)C(=O)CCC(=O)NCCCC[C@H](NC(=O)CCC(=O)N(CCOC(=O)CCCCCCC/C=C\C/C=C\CCCCC)CCOC(=O)CCCCCCC/C=C\C/C=C\CCCCC)C(=O)NCCCOCCOCCOCCCNC(=O)CCOCCOCCOCCOCCOCCC(=O)NCCCOCCOCCOCCCNC(=O)[C@H](CCCCNC(=O)CCC(=O)N(CCOC(=O)CCCCCCC/C=C\C/C=C\CCCCC)CCOC(=O)CCCCCCC/C=C\C/C=C\CCCCC)NC(=O)CCC(=O)N(CCOC(=O)CCCCCCC/C=C\C/C=C\CCCCC)CCOC(=O)CCCCCCC/C=C\C/C=C\CCCCC [Compound R4] | 16% | 10% | 6% |  |  |  | activity for gene expression knockdown in stellate cells compared to control formulation (FIG. 24, Table 6 formulation HEDC:S104:DOPE:CH:DMPE-PEG with 2% (of total lipids) fusogenic compound): surprisingly increased; HSP47 gene expression knockdown compared to control formulation without fusogenic compound (FIG. 46, fusogenic compound 2% of the total lipids): greatly and surprisingly increased; HSP47 gene expression knockdown compared to control formulation without fusogenic compound (FIG. 46, fusogenic compound 10% of the total lipids): greatly and surprisingly increased; HSP47 gene expression knockdown compared to control formulation without fusogenic compound (FIG. 47, fusogenic compound 2% of the total lipids): greatly and surprisingly increased; % of Expression at Dose (nM) 50 nM (Table 3, siRNA 50 nM, rat stellate cells, 48 hours after transfection): 44%; % of Expression at Dose (nM) 200 nM (Table 3, siRNA 200 nM, rat stellate cells, 48 hours after transfection): 15%
CCCCCCCCCCCCCCCC(=O)OCCN(CCOC(=O)CCCCCCCCCCCCCCC)C(=O)CCCC(=O)NCCCC[C@H](NC(=O)CCCC(=O)N(CCOC(=O)CCCCCCCCCCCCCCC)CCOC(=O)CCCCCCCCCCCCCCC)C(=O)NCCCOCCOCCOCCCNC(=O)CCOCCOCCOCCOCCOCCC(=O)NCCCOCCOCCOCCCNC(=O)[C@H](CCCCNC(=O)CCCC(=O)N(CCOC(=O)CCCCCCCCCCCCCCC)CCOC(=O)CCCCCCCCCCCCCCC)NC(=O)CCCC(=O)N(CCOC(=O)CCCCCCCCCCCCCCC)CCOC(=O)CCCCCCCCCCCCCCC [Compound S6] | 97% | 80% | 33% |  |  |  | 
CCCCCCCC/C=C\CCCCCCCC(=O)OCCN(CCOC(=O)CCCCCCC/C=C\CCCCCCCC)C(=O)CCC(=O)NCCCC[C@H](NC(=O)CCC(=O)N(CCOC(=O)CCCCCCC/C=C\CCCCCCCC)CCOC(=O)CCCCCCC/C=C\CCCCCCCC)C(=O)NCCCOCCOCCOCCOCCOCCCNC(=O)[C@H](CCCCNC(=O)CCC(=O)N(CCOC(=O)CCCCCCC/C=C\CCCCCCCC)CCOC(=O)CCCCCCC/C=C\CCCCCCCC)NC(=O)CCC(=O)N(CCOC(=O)CCCCCCC/C=C\CCCCCCCC)CCOC(=O)CCCCCCC/C=C\CCCCCCCC [Compound S7] | 57% | 48% | 27% |  |  |  | 
CCCCCCCC/C=C\CCCCCCCC(=O)OCCN(CCOC(=O)CCCCCCC/C=C\CCCCCCCC)C(=O)CCC(=O)NCCCC[C@H](NC(=O)CCC(=O)N(CCOC(=O)CCCCCCC/C=C\CCCCCCCC)CCOC(=O)CCCCCCC/C=C\CCCCCCCC)C(=O)NCCCOCCOCCOCCCNC(=O)CCOCCOCCOCCOCCOCCC(=O)NCCCOCCOCCOCCCNC(=O)[C@H](CCCCNC(=O)CCC(=O)N(CCOC(=O)CCCCCCC/C=C\CCCCCCCC)CCOC(=O)CCCCCCC/C=C\CCCCCCCC)NC(=O)CCC(=O)N(CCOC(=O)CCCCCCC/C=C\CCCCCCCC)CCOC(=O)CCCCCCC/C=C\CCCCCCCC [Compound S8] | 74% | 64% | 42% |  |  |  | 
CCCCCCCCCCCCCC(=O)OCCN(CCOC(=O)CCCCCCCCCCCCC)C(=O)CCC(=O)NCCCC[C@H](NC(=O)CCC(=O)N(CCOC(=O)CCCCCCCCCCCCC)CCOC(=O)CCCCCCCCCCCCC)C(=O)NCCCOCCOCCOCCCNC(=O)CCOCCOCCOCCOCCOCCC(=O)NCCCOCCOCCOCCCNC(=O)[C@H](CCCCNC(=O)CCC(=O)N(CCOC(=O)CCCCCCCCCCCCC)CCOC(=O)CCCCCCCCCCCCC)NC(=O)CCC(=O)N(CCOC(=O)CCCCCCCCCCCCC)CCOC(=O)CCCCCCCCCCCCC [Compound T1] | 76% | 68% | 44% |  |  |  | 
CCCCCCCCCCCCCC(=O)OCCN(CCOC(=O)CCCCCCCCCCCCC)C(=O)CCC(=O)NCCCC[C@H](NC(=O)CCC(=O)N(CCOC(=O)CCCCCCCCCCCCC)CCOC(=O)CCCCCCCCCCCCC)C(=O)NCCCOCCOCCOCCOCCOCCCNC(=O)[C@H](CCCCNC(=O)CCC(=O)N(CCOC(=O)CCCCCCCCCCCCC)CCOC(=O)CCCCCCCCCCCCC)NC(=O)CCC(=O)N(CCOC(=O)CCCCCCCCCCCCC)CCOC(=O)CCCCCCCCCCCCC [Compound T2] | 82% | 70% | 44% |  |  |  | 
CCCCC/C=C\C/C=C\CCCCCCCC(=O)OCCN(CCOC(=O)CCCCCCC/C=C\C/C=C\CCCCC)C(=O)CCC(=O)NCCCCC(NC(=O)CCC(=O)N(CCOC(=O)CCCCCCC/C=C\C/C=C\CCCCC)CCOC(=O)CCCCCCC/C=C\C/C=C\CCCCC)C(=O)NCCCOCCOCCOCCCNC(=O)C(CCCCNC(=O)CCC(=O)N(CCOC(=O)CCCCCCC/C=C\C/C=C\CCCCC)CCOC(=O)CCCCCCC/C=C\C/C=C\CCCCC)NC(=O)CCC(=O)N(CCOC(=O)CCCCCCC/C=C\C/C=C\CCCCC)CCOC(=O)CCCCCCC/C=C\C/C=C\CCCCC (stereo not drawn) [Compound T4] | 82% | 70% | 44% | 27% | 10% | 8% | 
CCCCC/C=C\C/C=C\CCCCCCCC(=O)OCCN(CCOC(=O)CCCCCCC/C=C\C/C=C\CCCCC)C(=O)CCCC(=O)NCCCC[C@H](NC(=O)CCCC(=O)N(CCOC(=O)CCCCCCC/C=C\C/C=C\CCCCC)CCOC(=O)CCCCCCC/C=C\C/C=C\CCCCC)C(=O)NCCCOCCOCCOCCOCCOCCCNC(=O)[C@H](CCCCNC(=O)CCCC(=O)N(CCOC(=O)CCCCCCC/C=C\C/C=C\CCCCC)CCOC(=O)CCCCCCC/C=C\C/C=C\CCCCC)NC(=O)CCCC(=O)N(CCOC(=O)CCCCCCC/C=C\C/C=C\CCCCC)CCOC(=O)CCCCCCC/C=C\C/C=C\CCCCC [Compound T5] |  |  |  | 29% | 13% | 11% | 
CCCCC/C=C\C/C=C\CCCCCCCC(=O)OCCN(CCOC(=O)CCCCCCC/C=C\C/C=C\CCCCC)C(=O)CCC(=O)NCCC[C@H](NC(=O)CCC(=O)N(CCOC(=O)CCCCCCC/C=C\C/C=C\CCCCC)CCOC(=O)CCCCCCC/C=C\C/C=C\CCCCC)C(=O)NCCCOCCOCCOCCOCCOCCCNC(=O)[C@H](CCCNC(=O)CCC(=O)N(CCOC(=O)CCCCCCC/C=C\C/C=C\CCCCC)CCOC(=O)CCCCCCC/C=C\C/C=C\CCCCC)NC(=O)CCC(=O)N(CCOC(=O)CCCCCCC/C=C\C/C=C\CCCCC)CCOC(=O)CCCCCCC/C=C\C/C=C\CCCCC [Compound T6] |  |  |  | 30% | 12% | 5% | 
CCCCC/C=C\C/C=C\CCCCCCCC(=O)OCCN(CCOC(=O)CCCCCCC/C=C\C/C=C\CCCCC)C(=O)CCC(=O)NC[C@H](NC(=O)CCC(=O)N(CCOC(=O)CCCCCCC/C=C\C/C=C\CCCCC)CCOC(=O)CCCCCCC/C=C\C/C=C\CCCCC)C(=O)NCCCOCCOCCOCCOCCOCCCNC(=O)[C@H](CNC(=O)CCC(=O)N(CCOC(=O)CCCCCCC/C=C\C/C=C\CCCCC)CCOC(=O)CCCCCCC/C=C\C/C=C\CCCCC)NC(=O)CCC(=O)N(CCOC(=O)CCCCCCC/C=C\C/C=C\CCCCC)CCOC(=O)CCCCCCC/C=C\C/C=C\CCCCC [Compound T7] |  |  |  | 51% | 20% | 8% | 
CC/C=C\C/C=C\C/C=C\CCCCCCCC(=O)OCCN(CCOC(=O)CCCCCCC/C=C\C/C=C\C/C=C\CC)C(=O)CCC(=O)NCCCC[C@H](NC(=O)CCC(=O)N(CCOC(=O)CCCCCCC/C=C\C/C=C\C/C=C\CC)CCOC(=O)CCCCCCC/C=C\C/C=C\C/C=C\CC)C(=O)NCCCOCCOCCOCCOCCOCCCNC(=O)[C@H](CCCCNC(=O)CCC(=O)N(CCOC(=O)CCCCCCC/C=C\C/C=C\C/C=C\CC)CCOC(=O)CCCCCCC/C=C\C/C=C\C/C=C\CC)NC(=O)CCC(=O)N(CCOC(=O)CCCCCCC/C=C\C/C=C\C/C=C\CC)CCOC(=O)CCCCCCC/C=C\C/C=C\C/C=C\CC [Compound T8] |  |  |  | 29% | 9% | 8% | 
CCC/C=C\C/C=C\CCCCCCCC(=O)OCCN(CCOC(=O)CCCCCCC/C=C\C/C=C\CCCCC)C(=O)CC[C@H](NC(=O)CCC(=O)NCCCOCCOCCOCCOCCOCCCNC(=O)CCC(=O)NC(CCC(=O)N(CCOC(=O)CCCCCCC/C=C\C/C=C\CCCCC)CCOC(=O)CCCCCCC/C=C\C/C=C\CCCCC)C(=O)N(CCOC(=O)CCCCCCC/C=C\C/C=C\CCC)CCOC(=O)CCCCCCC/C=C\C/C=C\CCCCC)C(=O)N(CCOC(=O)CCCCCCC/C=C\C/C=C\CCCCC)CCOC(=O)CCCCCCC/C=C\C/C=C\CCCCC (stereo partly drawn) [Compound T9] |  |  |  | 100% | 65% | 36% | 
CCCCC/C=C\C/C=C\CCCCCCCCOC(=O)[C@H]1C[C@H](NCC(=O)CCC(=O)NCCCCC(NC(=O)CCC(=O)N[C@H]2C[C@H](C(=O)OCCCCCCCC/C=C\C/C=C\CCCCC)N(C(=O)CCCCCCC/C=C\C/C=C\CCCCC)C2)C(=O)NCCCOCCOCCOCCOCCOCCCNC(=O)C(CCCCNC(=O)CCC(=O)N[C@@H]2C[C@@H](C(=O)OCCCCCCCC/C=C\C/C=C\CCCCC)N(C(=O)CCCCCCC/C=C\C/C=C\CCCCC)C2)NC(=O)CCC(=O)N[C@@H]2C[C@@H](C(=O)OCCCCCCCC/C=C\C/C=C\CCCCC)N(C(=O)CCCCCCC/C=C\C/C=C\CCCCC)C2)CN1C(=O)CCCCCCC/C=C\C/C=C\CCCCC (stereo partly drawn) [Compound T10] |  |  |  |  |  |  | % of HSP47 expression in Stellate Cell, Conc siRNA 18 nM (Table 5, siRNA 18 nM, stellate cells): 11.1%; % of HSP47 expression in Stellate Cell, Conc siRNA 75 nM (Table 5, siRNA 75 nM, stellate cells): 4.2%; % of HSP47 expression in Stellate Cell, Conc siRNA 300 nM (Table 5, siRNA 300 nM, stellate cells): 1.9%
